Where two headings read alike, the source gives them in different places.
Experiments:
Experiment in all cases: Cellular proliferation assay
Type in all cases: cell-based
[1] = test system: ALL-SIL; conditions: T-ALL, TLX1 overexpression
Procedure: (§1) All suspension cells were plated (96-well) in triplicate at 5,000-30,000 cells per well for testing (n=3). Viable cell number was estimated after 3, 7 and 10 days by counting viable cells from one vehicle well, generating a cell dilution series, transferring […] per well in duplicate to a 384-well plate, and performing a linear regression to CellTiter-Glo (Promega) response (SPECTRAmax M3, Molecular Devices). Cells from all wells were also fourfold diluted in media and transferred in duplicate for CellTiter-Glo measurement. On days 3 and 7, an equal volume for all wells was split-back with fresh media and compound, such that the resulting cell density for the vehicle well matched the initial seeding density. For days 7 and 10, estimated cell number represents the split-adjusted theoretical cell number. HCT116 were plated (96-well) in triplicate at 250 cells per well. Cells were incubated in the presence of vehicle, 1 μM paclitaxel, or compound. On day 7, CellTiter-Blue (Promega) response was measured and values were normalized to vehicle (100% growth) and paclitaxel (0% growth). For growth assays with inhibitors, n=3 for each concentration with two independent experiments.

[2] = test system: ARH-77; conditions: MM/PCL
Procedure: as §1

[3] = test system: CMK-86
Procedure: as §1

[4] = test system: GRANTA 519; conditions: Mantle Cell Lymphoma
Procedure: as §1

[5] = test system: HCT116; conditions: Colorectal, β-catenin
Procedure: as §1

[6] = test system: HEL
Procedure: as §1

[7] = test system: HL-60; conditions: AML/APL
Procedure: as §1

[8] = test system: JeKo-1; conditions: Mantle Cell Lymphoma
Procedure: as §1

[9] = test system: Jurkat; conditions: T-ALL
Procedure: as §1

[10] = test system: Kasumi-1; conditions: AML, RUNX1-RUNX1T1
Procedure: as §1

[11] = test system: ME-1; conditions: ME-1 (CBFB-MYH11); 10-day treatment; read-out: G150 after 10 days of treatment
Procedure: as §1

[12] = test system: MEG-01
Procedure: as §1

[13] = test system: MKPL-1; conditions: MKPL-1 (RBM6-CSF1R), adult non-DS-AMKL; 10-day treatment; read-out: G150 after 10 days of treatment
Procedure: as §1

[14] = test system: MM1.S; conditions: MM
Procedure: as §1

[15] = test system: MOLM-14
Procedure: as §1

[16] = test system: MOLM-16; conditions: AMkL < 1
Procedure: as §1

[17] = test system: MV4; 11
Procedure: as §1

[18] = test system: NB4; conditions: AML/APL, PML-RARA
Procedure: as §1

[19] = test system: OCI-LY1; conditions: DLBCL
Procedure: as §1

[20] = test system: REH; conditions: pre B-ALL, ETV6-RUNX1
Procedure: as §1

[21] = test system: RS4; 11; conditions: B-ALL, MLL-AF4
Procedure: as §1

[22] = test system: SET-2
Procedure: as §1

[23] = test system: SKNO-1
Procedure: as §1

[24] = test system: TF-1
Procedure: as §1

[25] = test system: UKE-1; conditions: AML/MPN, JAK2V617F
Procedure: as §1

[26] = test system: leukemia cell lines; conditions: K562 and HEL compared to MEG-01 and SET-2 (BCR-Abl or JAK2V617F)
Procedure: as §1

[27] = test system: megakaryocytic cell lines; conditions: read-out: 50% maximal growth inhibitory concentrations (GI50s); 5 out of 5 megakaryocytic cell lines tested
Procedure: as §1

Question: Which GI50 [1] does the source give for Cortistatin A here?
Answer: 2 nM

Question: What about the GI50 [2] of the same substance?
Answer: 16 nM

Question: And the IC50 ([3]; CMK-86 (GATA1s), pediatric DS-AMKL, 10-day treatment, read-out: G150 after 10 days of treatment)?
Answer: 8 nM

Question: And the GI50 ([3]; CMK-86, AMkL, GATA1s)?
Answer: 8 nM

Question: What about the GI50 [4] of the same substance?
Answer: 400 nM

Question: And the GI50 [5]?
Answer: > 1000 nM

Question: What about the IC50 ([6]; HEL (JAK2V617F), erythroleukemia, 10-day treatment, read-out: G150 after 10 days of treatment) of the same substance?
Answer: > 1000 nM

Question: What about the GI50 ([6]; HEL, AML/Erythroleukemia, JAK2V617F) of the same substance?
Answer: > 1000 nM

Question: What about the GI50 [7] of the same substance?
Answer: 7 nM

Question: What about the GI50 [8] of the same substance?
Answer: < 1 nM

Question: What about the GI50 [9] of the same substance?
Answer: 155 nM

Question: And the GI50 [10]?
Answer: 95 nM

Question: What about the IC50 [11] of the same substance?
Answer: 1 nM

Question: What about the IC50 ([12]; MEG-01 (BCR-AB1, GAGA1s), adult non-DS-AMKL, 10-day treatment, read-out: G150 after 10 days of treatment) of the same substance?
Answer: 9 nM

Question: What about the GI50 ([12]; MEG-01, CML/AMkL, BCR-ABL, GATA1s) of the same substance?
Answer: 9 nM

Question: And the IC50 [13]?
Answer: 1 nM

Question: What about the GI50 [14] of the same substance?
Answer: 5 nM

Question: And the GI50 ([15]; MOLM-14 (MLL-AF9), 10-day treatment, read-out: G150 after 10 days of treatment)?
Answer: 5 nM

Question: And the GI50 ([15]; MOLM-14, AML, MLL-AF9, read-out: GI50)?
Answer: 5 nM

Question: What about the GI50 [16] of the same substance?
Answer: < 1 nM

Question: What about the IC50 ([17]; 11 (MLL-AF4), 10-day treatment, read-out: G150 after 10 days of treatment) of the same substance?
Answer: 6 nM

Question: What about the GI50 ([17]; 11, AML, MLL-AF4) of the same substance?
Answer: 6 nM

Question: What about the GI50 [18] of the same substance?
Answer: > 1000 nM

Question: And the GI50 [19]?
Answer: 37 nM

Question: And the GI50 [20]?
Answer: 1 nM

Question: And the GI50 [21]?
Answer: 3 nM

Question: And the IC50 ([22]; SET-2 (JAK2V617F), 10-day treatment, read-out: G150 after 10 days of treatment)?
Answer: 4 nM

Question: What about the GI50 ([22]; SET-2, AMkL/MPN, JAK2V617F) of the same substance?
Answer: 4 nM

Question: What about the “proliferation, theoretical cell number over time” value ([22]; SET-2, FIG. 4) of the same substance?
Answer: inhibits the proliferation

Question: What about the IC50 ([23]; SKNO-1 (RUNX1-RUNX1T1), 10-day treatment, read-out: G150 after 10 days of treatment) of the same substance?
Answer: 1 nM

Question: What about the GI50 ([23]; SKNO-1, RUNX1-RUNX1T1) of the same substance?
Answer: 1 nM

Question: What about the IC50 ([24]; TF-1 (EpoR), erythroleukemia, 10-day treatment, read-out: G150 after 10 days of treatment) of the same substance?
Answer: 350 nM

Question: What about the GI50 ([24]; TF-1, AML/Erythroleukemia, EpoR) of the same substance?
Answer: 350 nM

Question: What about the GI50 [25] of the same substance?
Answer: 7 nM

Question: And the “difference in sensitivity, megakaryocytic vs erythroleukemia cell lines containing the same mutations” value [26]?
Answer: more than 100 fold

Question: And the IC50 [27]?
Answer: < 10 nM

Source: patent US20180369230A1, “TARGETED SELECTION OF PATIENTS FOR TREATMENT WITH SPECIFIC CORTISTATIN DERIVATIVES” (President and Fellows of Harvard College, priority 2015, published 2018)
